Measurements from patent US20120101098A1, “3,28-DISUBSTITUTED BETULINIC ACID DERIVATIVES AS ANTI-HIV AGENTS” (priority 2009, published 2012).
Where two headings read alike, the source gives them in different places.

Legend:
HIV-1 = experiment: Example 2 anti-HIV bioassay of C-28 ethylene glycol bevirimat analogs; format: cell-based; settings: Example 2 compounds (Scheme B)
in vitro [1] = experiment: in vitro
HIV-1IIIB = HIV-1IIIB replication inhibition assay in MT-2 lymphocytes (p24 antigen ELISA); format: cell-based; settings: HIV-1IIIB infected MT-2 cell lines, concentration that inhibits HIV-1IIIB replication by 50%, NS: no suppression at concentrations below the CC50
Protocol: (§1) HIV-1IIIB Replication Inhibition Assay in MT-2 Lymphocytes. The evaluation of HIV-1 inhibition was carried out as follows. […] Control wells containing virus and cells only (no drug) and cells only (no virus or drug) were also prepared. A second identical set of samples were added to cells under the same conditions without virus (mock infection) for cytotoxicity determinations (CC50 defined below). […] On day 4 PI, the assay was terminated and culture supernatants were harvested for p24 antigen ELISA analysis. The compound cytotoxicity was determined by XTT using the mock-infected sample wells.

[2] = Protein binding affinity (stated in words, Example 2); format: in vitro ADME; settings: Example 2 compounds (Scheme B)
[3] = Solubility (stated in words)
[4] = Example 2 bioassay cytotoxicity (CC50); settings: Example 2 compounds (Scheme B)
mock-infected MT-2 cell [5] = experiment: Cytotoxicity in mock-infected MT-2 cells (XTT); settings: concentration that inhibits mock-infected MT-2 cell growth by 50%
Protocol: as §1

HIV-1NL4-3 = HIV-1NL4-3 replication inhibition assay in MT-4 lymphocytes (p24 antigen ELISA); format: cell-based; settings: HIV-1NL4-3 infected MT-4 cell lines; concentration that inhibits HIV-1NL4-3 replication by 50%
Source text: HIV-1NL4-3 Replication Inhibition Assay in MT-4 Lymphocytes. A previously described HIV-1 infectivity assay was used.^28,33 A 96-well microtiter plate was used to set up the HIV-1NL4-3 replication screening assay. NL4-3 variants at a multiplicity of infection (MOI) of 0.01 were used to infect MT4 cells. Culture supernatants were collected on day 4 post-infection for the p24 antigen capture using an ELISA kit from ZeptoMetrix Corporation (Buffalo, N.Y.).

mock-infected MT-4 cell = experiment: Cytotoxicity in mock-infected MT-4 cells; format: cell-based; settings: concentration that inhibits mock-infected MT-4 cell growth by 50%; read-out: CC50
mock-infected MT-2 cell [6] = system: mock-infected MT-2 cell
Protocol: as §1

[7] = human, microsomes
in vitro [8] = settings: human, mock-infected MT-2 cells
Protocol: as §1

[9] = In vitro metabolic stability in pooled human liver microsomes; settings: 3 μM, 0.2 mg/mL human liver microsome, NADPH
[10] = Example 2 compounds (Scheme B), C-28 ethylene glycol side chains on bevirimat
[11] = Human immunodeficiency virus 1, MT2

| Compound | EC50 (HIV-1IIIB) | EC50 (HIV-1) | protein binding affinity (in words) [2] | solubility (in words) ([3]; Example 1 compounds) | solubility (in words) [3, 10] | CC50 [4] | CC50 (mock-infected MT-2 cell [5]) | EC50 (HIV-1IIIB; [11]) | melting point | other results |
| --- | --- | --- | --- | --- | --- | --- | --- | --- | --- | --- |
| C=C(C)[C@@H]1CC[C@]2(C(=O)O)CC[C@]3(C)[C@H](CC[C@@H]4[C@@]5(C)CC[C@H](OC(=O)CC(C)(C)C(=O)O)C(C)(C)[C@@H]5CC[C@]43C)[C@@H]12 [Compound 2, bevirimat, reference compound] |  |  |  |  |  |  |  |  |  | EC50 (HIV-1; Human immunodeficiency virus 1): 63 nM; CC50 (in vitro [1]): 16.3 µM |
| C=C(COCCN1CCOCC1)[C@@H]1CC[C@]2(C(=O)NCCCCCCCC(=O)O)CC[C@]3(C)[C@H](CC[C@@H]4[C@@]5(C)CC[C@H](O)C(C)(C)[C@@H]5CC[C@]43C)[C@@H]12 [Compound 20, N-[3β-Hydroxy-30-(2′-morpholinoethoxy)-lup-20(29)-en-28-oyl]-8-aminooctanoic acid] | 1800 nM | 170 nM | decreased protein binding affinity | increase in the derivative's solubility | increased solubility | 12.4 µM | 24.8 µM |  |  |  |
| C=C(COCCN1CCOCC1)[C@@H]1CC[C@]2(C(=O)NCCCCCCCC(=O)NC)CC[C@]3(C)[C@H](CC[C@@H]4[C@@]5(C)CC[C@H](O)C(C)(C)[C@@H]5CC[C@]43C)[C@@H]12 [Compound 21] | 90 nM | 46 nM | decreased protein binding affinity | good solubility | increased solubility | 12 µM | 22.3 µM |  |  | EC50 (HIV-1NL4-3): 90 nM; CC50 (mock-infected MT-4 cell): > 10 µM |
| C=C(C)[C@@H]1CC[C@]2(C(=O)NCCCCCCCC(=O)O)CC[C@]3(C)[C@H](CC[C@@H]4[C@@]5(C)CC[C@H](O)C(C)(C)[C@@H]5CC[C@]43C)[C@@H]12 [Compound 23, N-[3β-Hydroxy-lup-20(29)-en-28-oyl]-8-aminooctanoic acid] | 3300 nM |  |  |  |  |  |  |  |  | CC50 (mock-infected MT-2 cell [6]): 33.4 µM; half life (t1/2, time to lose 50% of parent) [7]: around 35 min |
| C=C(CBr)[C@@H]1CC[C@]2(C(=O)NC(CC(C)C)C(=O)O)CC[C@]3(C)[C@H](CC[C@@H]4[C@@]5(C)CC[C@H](OC(=O)CC(C)(C)C(=O)O)C(C)(C)[C@@H]5CC[C@]43C)[C@@H]12 (stereo partly drawn) [Compound 30, N-[3β-O-(3′,3′-Dimethylsuccinyl)-30-bromo-lup-20(29)-en-28-oyl]-leucine] |  |  |  |  |  |  |  | 11 nM | 105 to 107 °C | CC50 at 4 day (in vitro [8]): 33.2 µM |
| C=C(C)[C@@H]1CC[C@]2(C(=O)N3CCC(CCCC(=O)O)CC3)CC[C@]3(C)[C@H](CC[C@@H]4[C@@]5(C)CC[C@H](O)C(C)(C)[C@@H]5CC[C@]43C)[C@@H]12 [Compound 38, N-[3β-Hydroxy-lup-20(29)-en-28-oyl]-4-piperidine butyric acid] |  |  |  |  |  |  | 41 µM | 21700 nM | 145 to 146 °C | Persentage of Remaining Parent Compounds (X ± SD) % ([9]; incubation time 0 min): 100.0%; Persentage of Remaining Parent Compounds (X ± SD) % ([9]; incubation time 5 min): 101.7 ± 4.7%; Persentage of Remaining Parent Compounds (X ± SD) % ([9]; incubation time 15 min): 97.6 ± 6.2%; Persentage of Remaining Parent Compounds (X ± SD) % ([9]; incubation time 30 min): 81.4 ± 8.6%; Persentage of Remaining Parent Compounds (X ± SD) % ([9]; incubation time 60 min): 62.7 ± 4.3%; Persentage of Remaining Parent Compounds (X ± SD) % ([9]; incubation time 120 min): 53.8 ± 3.8% |
